Test results taken from EPA's ToxValDB 9.5 (doi:10.2903/j.efsa.2006.65r).
Converted amounts (≈) assume the structure as drawn. “And” between values parts separate entries of the source, which are not always exact repeats. Identical values can stand only once.

Assays:
Neomysis kadiakensis = conditions: chronic/long-term; duration: 28 days
Bibionidae = conditions: chronic/long-term
Pontoscolex corethrurus = conditions: acute; mortality
Daphnia magna = conditions: chronic/long-term; duration: 21 days
Lepomis macrochirus = conditions: acute, duration: 96 hours
Aphidius rhopalosiphi = experiment: LR50; higher = less toxic; conditions: not reported; mortality
Canidae = conditions: oral, Dog Other, clinical signs
Apis mellifera = conditions: acute, mortality
[1] = short-term, duration: 5 days, oral, diet, food consumption

Work on `N#Cc1nn(-c2c(Cl)cc(C(F)(F)F)cc2Cl)c(N)c1C(F)(F)F` [Fipronil desulfinyl] yielded an NOEL (Colinus virginianus; [1]) of 7.12 mg/kg-day.

With `N#Cc1nn(-c2c(Cl)cc(C(F)(F)F)cc2Cl)c(N)c1SC(F)(F)F` [Fipronil sulfide] the NOEC (Neomysis kadiakensis) was 4.6e-06 mg/L, the NOEC (Bibionidae; duration: 28 days) was 0.000117 mg/L and 0.000193 mg/kg and the LC50 (Pontoscolex corethrurus) was greater than 1000 mg/kg. It also gave an NOEL (Colinus virginianus; [1]) of 6.98 mg/kg-day, an NOEC (Daphnia magna) of 0.013 mg/L and an LC50 (Oncorhynchus mykiss; acute, duration: 96 hours, mortality) of 0.0295 µg/mL (≈ 0.07 µM).

`N#Cc1nn(-c2c(Cl)cc(C(F)(F)F)cc2Cl)c(N)c1S(=O)(=O)C(F)(F)F` [Fipronil sulfone] gave an NOEC (Bibionidae) of 6.9e-05 mg/L, an NOEC (Bibionidae; duration: 28 days) of 0.000165 mg/kg and an LC50 (Pontoscolex corethrurus) greater than 1000 mg/kg. The LC50 (Lepomis macrochirus) was 0.025 µg/mL (≈ 0.0552 µM) and the NOEL (Colinus virginianus; [1]) was 7.83 mg/kg-day.

`N#Cc1nn(-c2c(Cl)cc(C(F)(F)F)cc2Cl)c(N)c1S(=O)C(F)(F)F` (centres undefined) [Fipronil] gave an LR50 (Aphidius rhopalosiphi) of 0.01 g/ha, an LD50 (Rattus norvegicus; acute, oral, M, mortality) of 92 mg/kg and an NOAEL (Rattus norvegicus; chronic, duration: 2 years, clinical signs) of 0.02 mg/kg-day. For the same compound, the NOAEL (Rattus norvegicus; developmental, development) was 0.9 mg/kg-day, the NOEL (Rattus norvegicus; reproduction developmental, M, reproduction) was 2.53 mg/kg-day and the NOAEL (Rattus norvegicus; subchronic, duration: 90 days, oral, clinical signs) was 0.35 mg/kg-day. For the same compound, the LC50 (Tagia sp.; acute, mortality) was greater than 1000 mg/kg, the NOEC (Tagia sp.; chronic/long-term) was 1000 mg/kg and the NOEC (Bibionidae) was 0.000193 mg/kg. For the same compound, the NOEC (Bibionidae; duration: 28 days) was 0.000117 mg/L, the NOAEL (Canidae; chronic, duration: 1 years) was 0.35 mg/kg-day and the NOAEL (Canidae; subchronic, duration: 90 days) was 0.35 mg/kg-day. For the same compound, the LC50 (Lepomis macrochirus; mortality) was 0.0852 µg/mL (≈ 0.195 µM), the LD50 (Colinus virginianus; acute, oral, mortality) was 11.3 mg/kg and the NOEL (Colinus virginianus; reproduction developmental) was 0.88 mg/kg-day. For the same compound, the NOEL (Colinus virginianus; [1]) was 3.77 mg/kg-day, the LD50 (Apis mellifera; dermal) was 0.00593 µg/piece and the LD50 (Apis mellifera; oral, unspecified) was 0.00417 µg/piece. It also gave an NOEC (Daphnia magna) of 0.0098 mg/L, an NOEC (Oncorhynchus mykiss; chronic/long-term, duration: 90 days) of 0.015 mg/L and an LC50 (Cyprinodon variegatus; acute, duration: 96 hours) of 0.13 µg/mL (≈ 0.297 µM). It also gave an NOEC (Cyprinodon variegatus; chronic/long-term, duration: 138 days) of 0.006 mg/L.
